Key:
[1] = system: Botrytis cinerea; assay: effectiveness on Botrytis cinerea; format: in vivo; settings: at 330 ppm; comparison compounds of WO 01/11965
[2] = system: Alternaria brassicae; assay: in vivo test on Alternaria brassicae (Leaf spot of crucifers); settings: for effectiveness on Alternaria brassicae: at 330 ppm, comparison compounds of WO 01/11965
Description: in vivo test on Alternaria brassicae (Leaf spot of crucifers)
The active ingredient tested is prepared by potter homogenisation in a concentrated suspension type formulation at 100 g/l. This suspension is then diluted with water to obtain the desired active material concentration.
Radish plants (Pernot variety) in starter cups, sown on a 50/50 peat soil-pozzolana substrate and grown at 18-20° C., are treated at the cotyledon stage by spraying with the aqueous suspension described above.
Plants, used as controls, are treated with an aqueous solution not containing the active material.
After 24 hours, the plants are contaminated by spraying them with an aqueous suspension of Alternaria brassicae spores (40,000 spores per cm^3). The spores are collected from a 12 to 13 days-old culture.
The contaminated radish plants are incubated for 6-7 days at about 18° C., under a humid atmosphere.
Grading is carried out 6 to 7 days after the contamination, in comparison with the control plants.

[3] = system: Peronosporaparasitica; assay: efficacy against Peronospora parasitica; format: in vivo; settings: at 330 ppm; comparison compound of WO 01/11965

Row | SMILES | effectiveness on Botrytis cinerea [1] | effectiveness on Alternaria brassicae [2] | protection (good (at least 50%) or total) ([2]; 330 ppm, radish plants sprayed 24 h before contamination, grading 6 to 7 days after contamination vs control plants) | efficacy against Peronospora parasitica [3]
1 | CNC(=O)C(Cc1ncc(C(F)(F)F)cc1Cl)NC(=O)c1ccc(OC)cc1 (stereo not shown) [compound 315, N-{1-methylcarbamoyl-2-[3-chloro-5-(trifluoromethyl)-2-pyridinyl]ethyl}-4-methoxybenzamide] | zero effectiveness |  |  | 
2 | CCNC(=O)C(Cc1ncc(C(F)(F)F)cc1Cl)NC(=O)c1ccccc1 (stereo not shown) [compound 304, N-{1-ethylcarbamoyl-2-[3-chloro-5-(trifluoromethyl)-2-pyridinyl]-ethyl}-benzamide] | zero effectiveness |  |  | 
3 | CCNC(=O)C(Cc1ncc(C(F)(F)F)cc1Cl)NC(=O)c1cccc([N+](=O)[O-])c1 (stereo not shown) [compound 307, N-{1-ethylcarbamoyl-2-[3-chloro-5-(trifluoromethyl)-2-pyridinyl]ethyl}-3-nitrobenzamide] | zero effectiveness | poor effectiveness |  | 
4 | CNC(=O)C(Cc1ncc(C(F)(F)F)cc1Cl)NC(=O)c1ccc(-c2ccccc2)cc1 (stereo not shown) [compound 316, N-{1-methylcarbamoyl-2-[3-chloro-5-(trifluoromethyl)-2-pyridinyl]-ethyl}-4-phenylbenzamide] | zero effectiveness | poor effectiveness |  | 
5 | CCNC(=O)C(Cc1ncc(C(F)(F)F)cc1Cl)NC(=O)c1ccc(Cl)cc1 (stereo not shown) [compound 306, N-{1-ethylcarbamoyl-2-[3-chloro-5-(trifluoromethyl) -2-pyridinyl]ethyl}-4-chlorobenzamide] | zero effectiveness |  |  | 
6 | Cn1cc(C(=O)NCCc2ccc(C(F)(F)F)nc2)c(C(F)(F)F)n1 [Compound A-1, N-[2-(6-trifluoromethyl-3-pyridinyl)ethyl]-1-methyl-3-(trifluoromethyl)-1H-pyrazole-4-carboxamide] |  |  | at least 50% | 
7 | CNC(=O)C(Cc1ncc(C(F)(F)F)cc1Cl)NC(=O)c1ccccc1 (stereo not shown) [compound 314, N-{1-methylcarbamoyl-2-[3-chloro-5-(trifluoromethyl) -2-pyridinyl]ethyl}-benzamide] | zero effectiveness |  |  | 
8 | CCNC(=O)C(Cc1ncc(C(F)(F)F)cc1Cl)NC(=O)c1ccccc1Br (stereo not shown) [compound 310, N-{1-ethylcarbamoyl-2-[3-chloro-5-(trifluoromethyl)-2-pyridinyl]ethyl}-2-bromobenzamide] | zero effectiveness |  |  | 
9 | O=C(Cc1cccs1)NCc1ncc(C(F)(F)F)cc1Cl [compound 101, N-{[3-chloro-5-(trifluoromethyl)-2-pyridinyl]methyl}-5-thienylacetamide] | no efficacy | poor efficacy |  | no efficacy

Source: patent US20080096932A1, “3-Pyridinylethylcarboxamide Derivatives as Fungicides” (priority 2004, published 2008)
